Consider 13 compounds from patent US6750246B1, “C-4 carbonate taxanes” (Bristol-Myers Squibb Company, priority 2000, dated 2004).

Data set [1] has as its system A2780 human ovarian tumor xenograft. Briefly: In vivo oral antitumor activity vs Sc A2780. The following applies: po gavage; for Oral Efficacy vs. Sc A2780 Log Cell Kill: q2d x 5, at optimal or maximum tolerated dose of Table III (mg/kg per administration), log cell kill = (T-C)/(TVDT x 3.32); for Oral Efficacy vs. Sc A2780 (Cures/Treated): q2d x 5, same dose as log cell kill, cure = tumor of 35 mg or less at termination.
Description: The experiments were carried out using athymic (“nude”) mice. […] The compound was administered at the dose indicated in Table III, namely, once daily every other day for five treatments (i.e. q2dx5).

The next data set concerns tumors in mice. The following applies: AACR 1999 abstract 1905; cited from earlier work.
Another data set concerns human or animal models. Particulars: cited from earlier work; for Oral activity in human or animal models: prior art.
For data set [2] the following is noted: administered orally; quote from WO98/53811; cited from earlier work.
A further data set relates to human tumor xenografts. Briefly: Orally administered paclitaxel against human tumor xenografts. Particulars: oral; athymic mice or athymic rats. (In general: Xenograft models place foreign cells or tissue in a host animal.)

As for “3′-N-Cyclobutyl-4-deacetyl-3′-N-debenzoyl-4-O-methoxycarbonyi-paciitaxel [Id]”, in data set [1], the “Oral Efficacy vs. Sc A2780 Log Cell Kill” value came out at 4.1 and the “Oral Efficacy vs. Sc A2780 (Cures/Treated)” value is 0/8.

In the case of `CC(=O)O[C@H]1C(=O)[C@@]2(C)[C@H]([C@H](OC(=O)c3ccccc3)[C@]34OC(=O)O[C@H]3[C@H](OC(=O)[C@H](O)[C@H](CC(C)C)NC(=O)OC(C)(C)C)C(C)=C1C4(C)C)[C@]1(OC(C)=O)CO[C@@H]1C[C@@H]2O` [IDN-5109], in the data set on tumors in mice, the “Oral activity against tumors in mice” value was “oral activity against tumors in mice”.

Turning to `COC(=O)O[C@@]12COC1C[C@H](O)[C@@]1(C)C(=O)[C@H](OC(C)=O)C3=C(C)[C@@H](OC(=O)[C@H](O)[C@@H](NC(=O)OC(C)(C)C)C(C)(C)C)C[C@@](O)([C@@H](OC(=O)c4ccccc4)C21)C3(C)C` (some centres unmarked) [Ia, 3′-tert-Butyl-3′-N-tert-butyloxycarbonyl-4-deacetyl-3′-dephenyl-3′-N-debenzoyl-4-O-methoxycarbonyl-paclitaxel], in data set [1], the “Oral Efficacy vs. Sc A2780 Log Cell Kill” value stood at 4.4 and the “Oral Efficacy vs. Sc A2780 (Cures/Treated)” value is given as 0/8.

`COC(=O)OC12COC1CC(O)C1(C)C(=O)C(OC(C)=O)C3=C(C)C(OC(=O)C(O)C(NC(=O)OC(C)(C)C)C(C)C)CC(O)(C(OC(=O)c4ccccc4)C21)C3(C)C` (centres unmarked) [Ib, 3′-N-tert-Butyloxycarbonyl-4-deacetyl-3′-dephenyl-3′-N-debenzoyl-3′-isopropyl-4-O-methoxycarbonyl-paclitaxel]: in data set [1], the “Oral Efficacy vs. Sc A2780 Log Cell Kill” value stood at 3.0 and the “Oral Efficacy vs. Sc A2780 (Cures/Treated)” value is reported as 1/8.

Turning to `COC(=O)OC12COC1CC(O)C1(C)C(=O)C(OC(C)=O)C3=C(C)C(OC(=O)C(O)C(NC(=O)CC(C)(C)C)c4ccccc4)CC(O)(C(OC(=O)c4ccccc4)C21)C3(C)C` (centres unmarked) [Ic, 3′-N-Neopentylcarbonyl-4-deacetyl-3′-N-debenzoyl-4-O-methoxycarbonyl-paclitaxel], in data set [1], the “Oral Efficacy vs. Sc A2780 Log Cell Kill” value is recorded as 3.8 and the “Oral Efficacy vs. Sc A2780 (Cures/Treated)” value is listed as 0/8.

For the compound `COC(=O)OC12COC1CC(O)C1(C)C(=O)C(OC(C)=O)C3=C(C)C(OC(=O)C(O)C(NC(=O)OC4CCCCC4)C(C)(C)C)CC(O)(C(OC(=O)c4ccccc4)C21)C3(C)C` (centres unmarked) [Ie, 3′-tert-Butyl-3′-N-cyclohexyloxycarbonyl-4-deacetyl-3′-dephenyl-3′-N-debenzoyl-4-O-methoxycarbonyl-paclitaxel], in data set [1], the “Oral Efficacy vs. Sc A2780 Log Cell Kill” value was found to be 1.5 and the “Oral Efficacy vs. Sc A2780 (Cures/Treated)” value is 0/8.

`COC(=O)O[C@@]12CO[C@@H]1C[C@H](O)[C@@]1(C)C(=O)[C@H](OC(C)=O)C3=C(C)[C@@H](OC(=O)[C@H](O)[C@@H](NC(=O)CC(C)(C)C)C(C)(C)C)C[C@@](O)([C@@H](OC(=O)c4ccccc4)[C@H]21)C3(C)C` [If, 3′-tert-Butyl-4-deacetyl-3′-dephenyl-3′-N-debenzoyl-3′-N-neopentylcarbonyl-4-O-methoxycarbonyl-paclitaxel]: in data set [1], the “Oral Efficacy vs. Sc A2780 Log Cell Kill” value is 1.8 and the “Oral Efficacy vs. Sc A2780 (Cures/Treated)” value is 0/8.

As for `COC(=O)O[C@@]12CO[C@@H]1C[C@H](O)[C@@]1(C)C(=O)[C@H](OC(C)=O)C3=C(C)[C@@H](OC(=O)[C@H](O)[C@@H](NC(=O)OC(C)(C)C)c4ccccc4)C[C@@](O)([C@@H](OC(=O)c4ccccc4)[C@H]21)C3(C)C` [Ig, 4-Deacetyl-3′-N-debenzoyl-3′-N-tertbutoxycarbonyl 4-O-methoxycarbonyl-paclitaxel], in data set [1], the “Oral Efficacy vs. Sc A2780 Log Cell Kill” value was 0.9 and the “Oral Efficacy vs. Sc A2780 (Cures/Treated)” value is recorded as 0/8.

In the case of `CCCCOC(=O)NC(c1ccccc1)C(O)C(=O)OC1CC2(O)C(OC(=O)c3ccccc3)C3C4(OC(=O)OC)COC4CC(O)C3(C)C(=O)C(OC(C)=O)C(=C1C)C2(C)C` (centres unmarked) [Ih, 4-Deacetyl-3′-N-debenzoyl-3′-N-nbutoxycarbonyl-4-O-methoxycarbonyl-paclitaxel], in data set [1], the “Oral Efficacy vs. Sc A2780 Log Cell Kill” value is listed as 1.0 and the “Oral Efficacy vs. Sc A2780 (Cures/Treated)” value is on record as 1/8.

Consider `COC(=O)O[C@@]12CO[C@@H]1C[C@H](O)[C@@]1(C)C(=O)[C@H](OC(C)=O)C3=C(C)[C@@H](OC(=O)[C@H](O)[C@@H](NC(=O)C4CCC4)C(C)(C)C)C[C@@](O)([C@@H](OC(=O)c4ccccc4)[C@H]21)C3(C)C` [Ij, 3′-N-Debenzoyl-3′-N-cyclobutylcarbonyl-3′-dephenyl-3′-tert-butyl-4-deacetyl-4-methoxycarbonyl Paclitaxel], for which, in data set [1], the “Oral Efficacy vs. Sc A2780 Log Cell Kill” value was determined as 2.1 and the “Oral Efficacy vs. Sc A2780 (Cures/Treated)” value is 0/8.

As for `COC(=O)OC12COC1CC(O)C1(C)C(=O)C(OC(C)=O)C3=C(C)C(OC(=O)C(O)C(NC(=O)c4ccco4)C(C)(C)C)CC(O)(C(OC(=O)c4ccccc4)C21)C3(C)C` (centres unmarked) [Ik, 3′-N-Debenzoyl-3′-N-(2-furoyl)-3′-dephenyl-3′-tert-butyl-4-deacetyl-4-methoxycarbonyl Paclitaxel], in data set [1], the “Oral Efficacy vs. Sc A2780 Log Cell Kill” value came out at 2.2 and the “Oral Efficacy vs. Sc A2780 (Cures/Treated)” value was 0/8.

In the case of `CC(=O)O[C@@]12CO[C@@H]1C[C@H](O)[C@@]1(C)C(=O)[C@H](O)C3=C(C)[C@@H](OC(=O)[C@H](O)[C@@H](NC(=O)OC(C)(C)C)c4ccccc4)C[C@@](O)([C@@H](OC(=O)c4ccccc4)[C@H]21)C3(C)C` [TAXOTERE®, docetaxel], the “Oral activity in human or animal models” value with human or animal models is on record as “no oral activity”.

For `CC(=O)O[C@H]1C(=O)[C@@]2(C)[C@H]([C@H](OC(=O)c3ccccc3)[C@]3(O)C[C@H](OC(=O)[C@H](O)[C@@H](NC(=O)c4ccccc4)c4ccccc4)C(C)=C1C3(C)C)[C@]1(OC(C)=O)CO[C@@H]1C[C@@H]2O` [paclitaxel], in the data set with human or animal models (oral, up to 160 mg/kg/day, Suffness et al.), the “Antitumor activity on oral administration” value is “no evidence of antitumor activity”. In addition, the “Oral activity in human or animal models” value with human or animal models is “no oral activity”. The Oral absorption result in data set [2] is reported as “less than 1%”. Besides, the “Activity of orally administered paclitaxel against human tumor xenografts” value with human tumor xenografts is recorded as “unsuccessful”.
